According to PubChem BioAssay AID330 (DTP/NCI, 2004):
Several values for one entry are separate records, joined by “and”; a condition that tells them apart may be missing. Equal values may be shown once. Inconclusive results and toxic doses are left out. The calls were made as follows: active = survival T/C of 150% or more; inactive = T/C below 125% in these data.

System: P388 leukemia ip, CD2F1 mice, survival T/C
Assay: NCI In Vivo Anticancer Drug Screen. Data for tumor model P388 Leukemia (intraperitoneal) in CD2F1 (CDF1) mice
Details: endpoint: median survival time, higher = longer survival
In short: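 Mice carrying the transplanted tumor received test compound or vehicle. Survival was recorded in each group, and the value is the treated-group measurement divided by that of the vehicle-treated control group.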

[1] = dose: 50.0 mg/kg/injection, schedule: Q01DX009 (ip), vehicle: suspension in saline
[2] = dose: 200.0 mg/kg/injection, schedule: Q01DX009 (ip), vehicle: suspension in saline
[3] = dose: 100.0 mg/kg/injection, schedule: Q01DX001 (ip), vehicle: saline
[4] = dose: 200.0 mg/kg/injection, schedule: Q01DX001 (ip), vehicle: saline
[5] = dose: 400.0 mg/kg/injection, schedule: Q01DX001 (ip), vehicle: saline
[6] = dose: 200.0 mg/kg/injection, schedule: Q01DX005 (ip), vehicle: Klucel (hydroxypropylcellulose) (HPC)
[7] = dose: 100.0 mg/kg/injection, schedule: Q01DX001 (ip), vehicle: saline with Tween-80
[8] = dose: 200.0 mg/kg/injection, schedule: Q01DX001 (ip), vehicle: saline with Tween-80
[9] = dose: 400.0 mg/kg/injection, schedule: Q01DX001 (ip), vehicle: saline with Tween-80
[10] = dose: 60.0 mg/kg/injection, schedule: Q01DX005 (ip), vehicle: saline with Tween-80
[11] = dose: 120.0 mg/kg/injection, schedule: Q01DX005 (ip), vehicle: saline with Tween-80
[12] = dose: 240.0 mg/kg/injection, schedule: Q01DX005 (ip), vehicle: saline with Tween-80
[13] = dose: 50.0 mg/kg/injection, schedule: Q01DX009 (ip), vehicle: saline with Tween-80
[14] = dose: 100.0 mg/kg/injection, schedule: Q01DX009 (ip), vehicle: saline with Tween-80
[15] = dose: 200.0 mg/kg/injection, schedule: Q01DX009 (ip), vehicle: saline with Tween-80
[16] = dose: 50.0 mg/kg/injection, schedule: Q01DX009 (ip), vehicle: Klucel (hydroxypropylcellulose) (HPC)
[17] = dose: 100.0 mg/kg/injection, schedule: Q01DX009 (ip), vehicle: Klucel (hydroxypropylcellulose) (HPC)
[18] = dose: 60.0 mg/kg/injection, schedule: Q01DX005 (ip), vehicle: Klucel (hydroxypropylcellulose) (HPC)
[19] = dose: 25.0 mg/kg/injection, schedule: Q01DX009 (ip), vehicle: saline with Tween-80

Measured: T/C

O=C(Nc1cccc(Cl)c1)Nc1ccc(Sc2ccc(Cl)cc2)o1
inactive: dose: 50.0 mg/kg/injection, schedule: Q01DX005 (ip), vehicle: saline with Tween-80 97 % of control | dose: 100.0 mg/kg/injection, schedule: Q01DX005 (ip), vehicle: saline with Tween-80 88 % of control | dose: 200.0 mg/kg/injection, schedule: Q01DX005 (ip), vehicle: saline with Tween-80 92 % of control

O=C1NC(=O)C(C23CCN(CC2)CC3)N1 (configuration not stated)
inactive: dose: 100.0 mg/kg/injection, schedule: Q04DX003 (ip), vehicle: saline 101 % of control | dose: 200.0 mg/kg/injection, schedule: Q04DX003 (ip), vehicle: saline 100 % of control | dose: 400.0 mg/kg/injection, schedule: Q04DX003 (ip), vehicle: saline 107 % of control

COc1ccc(CSC(=S)Nc2ccc(SC)c(Cl)c2)cc1
inactive: [1] 100 % of control | dose: 100.0 mg/kg/injection, schedule: Q01DX009 (ip), vehicle: suspension in saline 108 % of control | [2] 98 % of control

CC1=CC(O)(C2(C)OC(C)(C)OC2=O)CCC1 (configuration not stated)
inactive: [3] 100 % of control | [4] 100 % of control | [5] 100 % of control

CCOP(=O)(CC(=O)O)OCC
inactive: dose: 50.0 mg/kg/injection, schedule: Q01DX009 (ip), vehicle: saline 100 % of control | dose: 100.0 mg/kg/injection, schedule: Q01DX009 (ip), vehicle: saline 102 % of control | dose: 200.0 mg/kg/injection, schedule: Q01DX009 (ip), vehicle: saline 93 % of control

COc1ccc2c(c1OC)C[N+]1([O-])CCc3cc4c(cc3C1C2)OCO4 (configuration not stated)
inactive: dose: 0.63 mg/kg/injection, schedule: Q01DX009 (ip), vehicle: distilled water + Tween-80 91 % of control | dose: 1.25 mg/kg/injection, schedule: Q01DX009 (ip), vehicle: distilled water + Tween-80 92 % of control | dose: 2.5 mg/kg/injection, schedule: Q01DX009 (ip), vehicle: distilled water + Tween-80 92 % of control | dose: 5.0 mg/kg/injection, schedule: Q01DX009 (ip), vehicle: distilled water + Tween-80 90 % of control | dose: 10.0 mg/kg/injection, schedule: Q01DX009 (ip), vehicle: distilled water + Tween-80 97 % of control | dose: 20.0 mg/kg/injection, schedule: Q01DX009 (ip), vehicle: distilled water + Tween-80 106 % of control

c1cc2c3c(ccc2c2c1OCN(C1CCCCC1)C2)OCN(C1CCCCC1)C3
inactive: dose: 3.12 mg/kg/injection, schedule: Q01DX005 (ip), vehicle: Klucel (hydroxypropylcellulose) (HPC) 96 % of control | dose: 6.25 mg/kg/injection, schedule: Q01DX005 (ip), vehicle: Klucel (hydroxypropylcellulose) (HPC) 91 % of control | dose: 12.5 mg/kg/injection, schedule: Q01DX005 (ip), vehicle: Klucel (hydroxypropylcellulose) (HPC) 90 % of control | [6] 94 % of control

CCOC(=O)c1c(-c2ccccc2)oc2ccc(NS(=O)(=O)c3ccccc3)cc12
inactive: [7] 95 % of control | [8] 104 % of control | [9] 95 % of control

Nc1ncnc2c1c(-c1ccccc1)cn2-c1ccccc1
inactive: [10] 103 % of control | [11] 104 % of control | [12] 98 % of control

NCc1cccn1OCc1ccccc1
inactive: [10] 100 % of control | [11] 106 % of control | [12] 104 % of control

COc1cc(C(=O)N/N=C/c2cccc3ccccc23)ccc1O
inactive: [13] 86 % of control | [14] 90 % of control | [15] 90 % of control

O=[N+]([O-])c1ccc(CS(=O)(=O)C(Cl)(Cl)Cl)o1
inactive: dose: 6.25 mg/kg/injection, schedule: Q01DX009 (ip), vehicle: saline 108 % of control and 112 % of control and 87 % of control | [1] 86 % of control | [2] 86 % of control

CC1C=CC(c2ccccc2)C2C(=O)OC(=O)C12 (configuration not stated)
inactive: [10] 116 % of control | [11] 114 % of control

Cc1ccc(N2C(=O)CC3(CCCC3)C2=O)cc1Cl
inactive: [16] 104 % of control | [17] 108 % of control | dose: 200.0 mg/kg/injection, schedule: Q01DX009 (ip), vehicle: Klucel (hydroxypropylcellulose) (HPC) 105 % of control

c1ccc2c(c1)[nH]c1c3ccccc3sc21
inactive: [18] 106 % of control | dose: 120.0 mg/kg/injection, schedule: Q01DX005 (ip), vehicle: Klucel (hydroxypropylcellulose) (HPC) 107 % of control | dose: 240.0 mg/kg/injection, schedule: Q01DX005 (ip), vehicle: Klucel (hydroxypropylcellulose) (HPC) 105 % of control

CCNSc1ccccc1
inactive: [16] 106 % of control

ClCCn1cnc2c(SCc3ccccc3Cl)ncnc21
inactive: [19] 100 % of control | [13] 90 % of control | [14] 90 % of control

CCN(CC)CCOC1CCCCC1
inactive: dose: 50.0 mg/kg/injection, schedule: Q01DX005 (ip), vehicle: saline 105 % of control | dose: 100.0 mg/kg/injection, schedule: Q01DX005 (ip), vehicle: saline 98 % of control

c1c2noc1CCCCCCCCC2
inactive: dose: 50.0 mg/kg/injection, schedule: Q01DX005 (ip), vehicle: Klucel (hydroxypropylcellulose) (HPC) 104 % of control | dose: 100.0 mg/kg/injection, schedule: Q01DX005 (ip), vehicle: Klucel (hydroxypropylcellulose) (HPC) 110 % of control | [6] 118 % of control

FC(F)(F)Sc1c(SC(F)(F)F)c(SC(F)(F)F)n(-n2c(SC(F)(F)F)c(SC(F)(F)F)c(SC(F)(F)F)c2SC(F)(F)F)c1SC(F)(F)F
inactive: dose: 15.0 mg/kg/injection, schedule: Q01DX005 (ip), vehicle: Klucel (hydroxypropylcellulose) (HPC) 104 % of control | dose: 30.0 mg/kg/injection, schedule: Q01DX005 (ip), vehicle: Klucel (hydroxypropylcellulose) (HPC) 106 % of control | [18] 103 % of control and 97 % of control

CS(=O)(=O)OCCCCC/C=C/CCCCCCC1C=CCC1 (configuration not stated)
inactive: [3] 98 % of control | [4] 99 % of control | [5] 100 % of control

CN(C)C(=S)c1cccc2ccccc12
inactive: [13] 86 % of control | [14] 96 % of control | [15] 114 % of control

COc1ccc(CC(=O)c2ccc(OC)cc2O)cc1
inactive: [7] 103 % of control | [8] 104 % of control | [9] 101 % of control

O=C(O)c1ccc(N=Nc2ccc(N(CCCl)CCCl)cc2C(=O)O)cc1
inactive: dose: 50.0 mg/kg/injection, schedule: Q01DX001 (ip), vehicle: Klucel (hydroxypropylcellulose) (HPC) 100 % of control | dose: 100.0 mg/kg/injection, schedule: Q01DX001 (ip), vehicle: Klucel (hydroxypropylcellulose) (HPC) 107 % of control

CCN(CC)CCN1C(=O)C2C3C=CC(C2C1=O)C1C2C(=O)N(CCN(CC)CC)C(=O)C2C31 (configuration not stated)
inactive: dose: 6.25 mg/kg/injection, schedule: Q01DX009 (ip), vehicle: water 104 % of control | dose: 12.5 mg/kg/injection, schedule: Q01DX009 (ip), vehicle: water 99 % of control and 100 % of control | dose: 25.0 mg/kg/injection, schedule: Q01DX009 (ip), vehicle: water 100 % of control and 111 % of control | dose: 50.0 mg/kg/injection, schedule: Q01DX009 (ip), vehicle: water 99 % of control and 103 % of control | dose: 100.0 mg/kg/injection, schedule: Q01DX009 (ip), vehicle: water 101 % of control and 111 % of control

NC(=S)c1ccc(Br)cc1
inactive: [16] 97 % of control | [17] 104 % of control

Cc1nc2ccccc2c(=O)n1-c1nc2ccccc2s1
inactive: [10] 92 % of control | [11] 89 % of control and 90 % of control | [12] 103 % of control

C=C(COC(C)=O)[C@@H](C)C(=O)C1OCOC(C2CC(=O)NC(=O)C2)[C@@H]1OC(C)=O (some centres not stated)
inactive: dose: 0.01 mg/kg/injection, schedule: Q01DX009 (ip), vehicle: distilled water + alcohol 98 % of control | dose: 0.03 mg/kg/injection, schedule: Q01DX009 (ip), vehicle: distilled water + alcohol 102 % of control | dose: 0.06 mg/kg/injection, schedule: Q01DX009 (ip), vehicle: distilled water + alcohol 102 % of control | dose: 0.12 mg/kg/injection, schedule: Q01DX009 (ip), vehicle: distilled water + alcohol 102 % of control

CCOC(=S)NS(=O)(=O)c1ccccc1
inactive: dose: 6.25 mg/kg/injection, schedule: Q01DX009 (ip), vehicle: saline with Tween-80 107 % of control | dose: 12.5 mg/kg/injection, schedule: Q01DX009 (ip), vehicle: saline with Tween-80 102 % of control | [19] 109 % of control | [13] 116 % of control

OCC1C2CCCC12 (configuration not stated)
inactive: [13] 95 % of control | [14] 114 % of control | [15] 104 % of control
